Experimental data published in ChEMBL document CHEMBL4406859, “Antitumor and antiviral activities of 4-substituted 1,2,3-triazolyl-2,3-dibenzyl-L-ascorbic acid derivatives” (Eur J Med Chem, 2019).
Active and inactive are the calls of the source. No cut-off for these calls is given here.

System: Vaccinia virus
Test: Antiviral activity against Vaccinia virus infected in human HELF cells assessed as reduction in virus-induced cytopathogenicity incubated for 7 days by microscopic analysis
Type: functional, organism-based
Conditions: Orthopoxvirus vaccinia

| Structure (SMILES) | Activity |
| --- | --- |
| COc1ccc(-c2cn(C/C=C3\OC(=O)C(OCc4ccccc4)=C3OCc3ccccc3)nn2)cc1 | inactive |
| C[Si](C)(C)c1cn(C[C@H](O)[C@H]2OC(=O)C(OCc3ccccc3)=C2OCc2ccccc2)nn1 | inactive |
| O=C1O/C(=C\Cn2cc(CCO)nn2)C(OCc2ccccc2)=C1OCc1ccccc1 | inactive |
| O=C1O/C(=C\Cn2cc(-c3cccc(O)c3)nn2)C(OCc2ccccc2)=C1OCc1ccccc1 | inactive |
| CCCCCCCCCCc1cn(C[C@H](O)[C@H]2OC(=O)C(OCc3ccccc3)=C2OCc2ccccc2)nn1 | inactive |
| Cc1ccc(-c2cn(C/C=C3\OC(=O)C(OCc4ccccc4)=C3OCc3ccccc3)nn2)cc1 | inactive |
| COc1ccccc1-c1cn(C/C=C2\OC(=O)C(OCc3ccccc3)=C2OCc2ccccc2)nn1 | inactive |
| O=C1O/C(=C\Cn2cc(-c3ccc(Br)cc3)nn2)C(OCc2ccccc2)=C1OCc1ccccc1 | inactive |
| CCCCc1cn(C[C@H](O)[C@H]2OC(=O)C(OCc3ccccc3)=C2OCc2ccccc2)nn1 | inactive |
| O=C1O/C(=C\Cn2cc(-c3cc(F)cc(F)c3)nn2)C(OCc2ccccc2)=C1OCc1ccccc1 | inactive |
| CC(C)(C)c1cn(C/C=C2\OC(=O)C(OCc3ccccc3)=C2OCc2ccccc2)nn1 | inactive |
| O=C1O[C@H]([C@@H](O)Cn2cc(C3CC3)nn2)C(OCc2ccccc2)=C1OCc1ccccc1 | inactive |
| CC(C)(C)c1cn(C[C@H](O)[C@H]2OC(=O)C(OCc3ccccc3)=C2OCc2ccccc2)nn1 | inactive |

Same assay, conditions: Orthopoxvirus vaccinia, 168 h

| Structure (SMILES) | EC50 [µM] |
| --- | --- |
| Nc1nc2c(ncn2COCCO)c(=O)[nH]1 [ACYCLOVIR] | > 250 |
| Nc1nc(O)c2ncn(COC(CO)CO)c2n1 [GANCICLOVIR] | > 100 |
| O=c1[nH]c(=O)n([C@H]2C[C@H](O)[C@@H](CO)O2)cc1/C=C/Br [BRIVUDINE] | 85 |
| CCCCc1cn(C/C=C2\OC(=O)C(OCc3ccccc3)=C2OCc2ccccc2)nn1 | > 100 |
